Experimental data taken from ChEMBL document CHEMBL1133864, “Identification of a novel family of nucleosides that specifically inhibit HIV-1 reverse transcriptase” (Bioorg Med Chem Lett, 2001).

Tests used:
CCRF-CEM = assay: Concentration required to reduce the viability of mock-infected CEM cells by 50%; format: functional; details: Homo sapiens
[1] = test system: Human immunodeficiency virus 2; assay: Effective concentration required to inhibit HIV-2 induced cytopathicity by 50% in CEM cells; format: functional, organism-based; details: Human immunodeficiency virus 2, CCRF-CEM
[2] = molecular target: T1, Human immunodeficiency virus type 1 reverse transcriptase (Human immunodeficiency virus 1, UniProt Q72547); assay: The compound was evaluated for inhibition of HIV-1 wild types […]-Lys recombinant reverse transcriptase
[3] = molecular target: T1, Human immunodeficiency virus type 1 reverse transcriptase; assay: The compound was evaluated for inhibition of HIV-1 mutant […]-Lys recombinant reverse transcriptase

Row | EC50 [1] [µM] | Compound | CC50 (CCRF-CEM) [µM] | IC50 [2] [µM] | IC50 [3] [µM]
1 | > 2 | Cc1cn(C2OC(CO[Si](C)(C)C(C)(C)C)CC2O[Si](C)(C)C(C)(C)C)c(=O)n(CC(=O)OCc2ccccc2)c1=O (stereo not drawn) | 21.6 | – | –
2 | > 10 | Cc1cn([C@H]2C[C@H](O[Si](C)(C)C(C)(C)C)[C@@H](CO[Si](C)(C)C(C)(C)C)O2)c(=O)n(CC(=O)OCc2ccccc2)c1=O | 56.4 | – | –
3 | > 250 | Cc1cn([C@@H]2O[C@H](CO)[C@@H](O)[C@H]2O[Si](C)(C)C(C)(C)C)c(=O)n(CC(=O)O)c1=O | > 250 | – | –
4 | > 50 | Cc1cn([C@@H]2O[C@H](CO[Si](C)(C)C(C)(C)C)[C@@H](O[Si](C)(C)C(C)(C)C)[C@H]2O[Si](C)(C)C(C)(C)C)c(=O)n(CC(=O)OCc2ccccc2)c1=O | 102 | – | –
5 | > 125 | Cc1cn([C@@H]2O[C@H](CO[Si](C)(C)C(C)(C)C)[C@@H](O[Si](C)(C)C(C)(C)C)[C@H]2O[Si](C)(C)C(C)(C)C)c(=O)n(CC(=O)O)c1=O | > 125 | – | –
6 | > 10 | Cc1cn([C@@H]2O[C@H](CO[Si](C)(C)C(C)(C)C)[C@@H](O[Si](C)(C)C(C)(C)C)[C@H]2O)c(=O)n(CC(=O)OCc2ccccc2)c1=O | 57.1 | – | –
7 | > 10 | Cc1cn([C@@H]2O[C@H](CO)[C@@H](O)[C@H]2O[Si](C)(C)C(C)(C)C)c(=O)n(CC(=O)OCc2ccccc2)c1=O | 26 | – | –
8 | > 10 | Cc1cn([C@H]2C[C@H](O[Si](C)(C)C(C)(C)C)[C@@H](CO[Si](C)(C)C(C)(C)C)O2)c(=O)n(CC(=O)O)c1=O | 20.3 | – | –
9 | > 10 | Cc1cn([C@@H]2O[C@H](CO[Si](C)(C)C(C)(C)C)[C@@H](O)[C@H]2O[Si](C)(C)C(C)(C)C)c(=O)n(CC(=O)OCc2ccccc2)c1=O | 25.7 | – | –
10 | > 50 | Cc1cn(C2CCC(CO[Si](C)(C)C(C)(C)C)O2)c(=O)n(CC(=O)OCc2ccccc2)c1=O (stereo not drawn) | > 250 | – | –
11 | > 250 | Cc1cn(C2CCC(CO[Si](C)(C)C(C)(C)C)O2)c(=O)n(CC(=O)O)c1=O (stereo not drawn) | > 250 | – | –
12 | > 250 | Cc1cn(C2O[C@H](CO[Si](C)(C)C(C)(C)C)[C@@H](O)[C@H]2O)c(=O)n(CC(=O)O)c1=O (stereo partly drawn) | > 250 | – | –
13 | > 10 | Cc1cn(C2O[C@H](CO[Si](C)(C)C(C)(C)C)[C@@H](O)[C@H]2O)c(=O)n(CC(=O)OCc2ccccc2)c1=O (stereo partly drawn) | 30 | – | –
14 | > 250 | Cc1cn(C2O[C@H](CO)[C@@H](O)[C@H]2O)c(=O)n(CC(=O)O)c1=O (stereo partly drawn) | > 250 | – | –
15 | > 250 | Cc1cn(C2O[C@H](CO)[C@@H](O)[C@H]2O)c(=O)n(CC(=O)OCc2ccccc2)c1=O (stereo partly drawn) | > 250 | – | –
16 | 0.004 | Cc1cn([C@H]2C[C@H](N=[N+]=[N-])[C@@H](CO)O2)c(=O)[nH]c1=O [ZIDOVUDINE] | 6 | – | –

Row | Compound | EC50 [1] [µM] | CC50 (CCRF-CEM) [µM] | IC50 [2] [µM] | IC50 [3] [µM]
17 | Cc1cn(C2OC(CO[Si](C)(C)C(C)(C)C)CC2O[Si](C)(C)C(C)(C)C)c(=O)n(CC(=O)O)c1=O (stereo not drawn) | > 10 | 20.7 | 33.8 | 47.4
18 | Cc1cn([C@@H]2O[C@H](CO[Si](C)(C)C(C)(C)C)C3(OS(=O)(=O)C=C3N)[C@H]2O[Si](C)(C)C(C)(C)C)c(=O)[nH]c1=O (stereo partly drawn) | > 20 | 14 | 3.6 | > 500
19 | Cc1cn([C@@H]2O[C@H](CO[Si](C)(C)C(C)(C)C)[C@@H](O)[C@H]2O[Si](C)(C)C(C)(C)C)c(=O)n(CC(=O)O)c1=O | > 10 | 23 | 138 | 158
20 | Cc1cn([C@@H]2O[C@H](CO[Si](C)(C)C(C)(C)C)[C@@H](O[Si](C)(C)C(C)(C)C)[C@H]2O)c(=O)n(CC(=O)O)c1=O | > 10 | 29.3 | 207 | 335
